From PubChem BioAssay (NCI)
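Each compound was tested at five concentrations against cells in 96-well plates for 48 hours. GI50: concentration for 50% inhibition of growth. TGI marks complete inhibition of growth.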

Legend:
Assay in all cases: NCI anticancer screen, dose series, 48 h
K-562 leukemia = system: K-562 leukemia
SF-539 CNS = system: SF-539 CNS
OVCAR-8 ovarian = system: OVCAR-8 ovarian
UACC-62 melanoma = system: UACC-62 melanoma
MOLT-4 leukemia = system: MOLT-4 leukemia
HT29 colon = system: HT29 colon
SK-MEL-2 melanoma = system: SK-MEL-2 melanoma
SW-620 colon = system: SW-620 colon
SK-MEL-28 melanoma = system: SK-MEL-28 melanoma
HS 578T breast = system: HS 578T breast

| Structure (SMILES) | TGI (K-562 leukemia) [µM] | TGI (SF-539 CNS) [µM] | TGI (OVCAR-8 ovarian) [µM] | TGI (UACC-62 melanoma) [µM] | TGI (MOLT-4 leukemia) [µM] | TGI (HT29 colon) [µM] | TGI (SK-MEL-2 melanoma) [µM] | TGI (SW-620 colon) [µM] | GI50 (K-562 leukemia) [µM] | GI50 (SK-MEL-28 melanoma) [µM] | TGI (SK-MEL-28 melanoma) [µM] | GI50 (SF-539 CNS) [µM] | GI50 (OVCAR-8 ovarian) [µM] | GI50 (UACC-62 melanoma) [µM] | GI50 (HT29 colon) [µM] | GI50 (SK-MEL-2 melanoma) [µM] | GI50 (HS 578T breast) [µM] | TGI (HS 578T breast) [µM] | GI50 (SW-620 colon) [µM] | GI50 (MOLT-4 leukemia) [µM] |
| --- | --- | --- | --- | --- | --- | --- | --- | --- | --- | --- | --- | --- | --- | --- | --- | --- | --- | --- | --- | --- |
| CC(C)=CC(=O)Oc1ccc([N+](=O)[O-])cc1 | > 100 | > 100 | > 100 | > 100 | > 100 | > 100 | > 100 | > 100 |  |  |  |  |  |  |  |  |  |  |  |  |
| COC(=O)NC/C=C\c1nc(CC/C=C\C(=O)OC2CC3CC(=O)O[C@H](/C=C/CC(C)C)C[C@H]4CCC(C)C(C[C@H](OC)CC(C2)O3)O4)co1 (some centres not stated) | 20.3 | 0.114 | > 100 | > 100 |  | > 100 | > 100 | > 100 | < 0.01 | 12.1 | > 100 | < 0.01 | > 100 | 0.0635 | 0.742 | 20.2 | 18.2 | > 100 | < 0.01 |  |
| COC1/C(=C\C(=O)OC(C)(C)C)c2ccccc2N1C(C)=O (configuration not stated) | > 100 | > 100 | > 100 | > 100 | > 100 | > 100 | > 100 | > 100 |  |  | > 100 |  |  |  |  |  |  |  |  |  |
| CC(=O)NC1=C(Nc2ccc(C)cc2)C(=O)c2ccccc2C1=O | > 75 | 33 | > 75 | 23 | 56.5 | 31.9 | 56.7 | 27.7 |  |  | 39.1 |  |  |  |  |  |  |  |  |  |
| C=C1C(=O)O[C@@H]2C1C[C@@H](O)/C(C)=C/C/C=C(\C)CCC[C@H](C)[C@H]2OC(C)=O (some centres not stated) |  | 39.9 | > 100 | 43.5 |  | > 100 | 67.9 | 58.9 |  | 34.5 | > 100 | 20.4 | 35.5 | 22 | 40 | 18.2 | 29.1 | 76 | 26 |  |
| O=C(O)c1c2c(c(C(=O)O)c3ccccc13)-c1ccccc1-2 | > 100 | 85.5 | > 100 | 65.9 | > 100 | > 100 | 97.1 | > 100 |  |  | > 100 |  |  |  |  |  |  |  |  |  |
| COC(=O)/C=C(C)/C=C/c1cc(C(C)=O)c(C)o1 | > 100 | > 100 | > 100 | > 100 | > 100 | > 100 | > 100 | > 100 |  |  |  |  |  |  |  |  |  |  |  |  |
| CC(=O)[CH-]C(=O)c1ccccc1.CC(=O)[CH-]C(=O)c1ccccc1.CC(=O)[CH-]C(=O)c1ccccc1.[Tl+3] | > 100 | > 100 | > 100 | > 100 | > 69.4 | > 100 | > 100 | > 100 | 2.32 | 74.3 | > 100 | 36.9 | 59.3 | 32 | 57.1 | 15.7 |  |  | 57.5 | 18.8 |
| CCOC(=O)/C(=C\c1ccc(OCc2ccccc2)c(OC)c1)C(=O)c1ccccc1 | 48.3 | 31.2 | > 10 | 48.4 | 43.6 |  | 40.7 | 40 |  |  | 30.4 |  |  |  |  |  |  |  |  |  |
| CCOc1cc2c(cnc3c4cc(OC)c(OC)cc4ccc23)cc1OC | > 100 | > 100 | > 100 | > 100 | > 100 | > 100 | > 100 | > 100 |  |  | > 100 |  |  |  |  |  |  |  |  |  |
| CCCCCCCCCNCCCCCCCCC |  | 3.4 | 4.66 | 3.35 |  | 2.88 | 3.41 | 3.48 |  | 1.76 | 3.29 | 1.9 | 2.19 | 1.74 | 1.27 | 1.8 | 1.83 | 4.16 | 1.76 |  |
| COc1ccc2c([nH]c3cc(O)c(C)cc32)c1C=O | > 25 | > 25 | > 25 | > 25 | > 25 | > 25 | > 25 | > 25 |  |  | > 25 |  |  |  |  |  |  |  |  |  |
| N/N=C(\CC1OC(=O)c2ccccc21)c1ccco1 (configuration not stated) | > 100 | > 100 |  | > 100 | > 100 | > 100 | > 100 | > 100 |  |  | > 100 |  |  |  |  |  |  |  |  |  |
| COc1ccc(C(=O)C(c2ccc(OC)cc2)C2(O)C(=O)Nc3c(C)cc(Cl)cc32)cc1 (configuration not stated) | > 100 | > 100 | > 100 | 54.2 | 54.5 | > 100 | > 100 | > 100 |  |  | > 100 |  |  |  |  |  |  |  |  |  |
| CC1(CO)OC1COCc1ccccc1 (configuration not stated) | > 100 | > 100 | > 100 | > 100 | > 100 | > 100 | > 100 | > 100 |  |  |  |  |  |  |  |  |  |  |  |  |
| CC(=O)OCSc1ncnc2c1ncn2CN1CCOCC1 | > 100 | > 100 | > 100 | > 100 | > 100 | 94.8 | > 100 | > 100 |  |  | > 100 |  |  |  |  |  |  |  |  |  |
| O=C(CNC(=O)OCc1ccccc1)Oc1ccccc1 | > 100 | > 100 | > 100 | > 100 | > 100 | > 100 | > 100 | > 100 |  |  | > 100 |  |  |  |  |  |  |  |  |  |
| COc1cc2c(c(OC)c1OC)-c1ccc(SC)c(=O)cc1[C@@H](NC(=O)c1ccc(OC(C)=O)cc1)CC2 | 6.03 | 0.0357 | 12.1 | 26.9 | > 100 | 0.0653 |  | 31 |  | 15 | 60 |  |  |  |  |  |  |  |  |  |
| C1CNCCNCCNCCN1 | > 100 | > 100 | > 100 | > 100 | > 100 | > 100 | > 100 | > 100 |  |  | > 100 |  |  |  |  |  |  |  |  |  |
| N#CCc1ccc(C(C#N)/C(CCCC(=O)Nc2cccc([N+](=O)[O-])c2)=N\NC(=O)NN)cc1 (configuration not stated) | > 100 | > 100 | > 100 | > 100 | > 100 | > 100 | > 100 | > 100 |  |  | > 100 |  |  |  |  |  |  |  |  |  |
